# Measurements from US9850256B2, “Antibacterial basic biaromatic derivatives with aminoalkoxy substitution” (priority 2014, dated 2017).
# Legend:
# Assay in all cases: Bacterial growth minimal inhibitory concentration (microdilution, cation-adjusted Mueller-Hinton Broth)
# K. pneumoniae T6474 = assay type: cell-based, Klebsiella pneumoniae; details: multiply-resistant strain (penicillin-, cephalosporin- and quinolone-resistant); for MIC: Klebsiella pneumoniae, T6474
# Procedure, shortened: (§1)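 Broth microdilution in cation-adjusted Mueller-Hinton Broth per CLSI M7-A7; MICs in mg/L. S. aureus A798 is methicillin- and quinolone-resistant, K. pneumoniae T6474 penicillin-, cephalosporin- and quinolone-resistant; E. coli ATCC25922 and P. aeruginosa ATCC 27853 are quinolone-sensitive.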
# E. coli ATCC25922 = assay type: cell-based; details: quinolone-sensitive strain; for MIC: Escherichia coli, ATCC25922
# Procedure, shortened: as §1
# P. aeruginosa ATCC 27853 = assay type: cell-based, Pseudomonas aeruginosa; details: quinolone-sensitive strain; for MIC: Pseudomonas aeruginosa, ATCC27853
# Procedure, shortened: as §1
# S. aureus A798 = assay type: cell-based, Staphylococcus aureus; details: multiply-resistant strain (methicillin- and quinolone-resistant); for MIC: Staphylococcus aureus, A798
# Procedure, shortened: as §1
MIC (K. pneumoniae T6474) [µg/mL],MIC (E. coli ATCC25922) [µg/mL],MIC (P. aeruginosa ATCC 27853) [µg/mL],MIC (S. aureus A798) [µg/mL],MIC for K. pneumoniae T6474 (K. pneumoniae T6474) [mg/L],MIC for E. coli ATCC25922 (E. coli ATCC25922) [mg/L],MIC for P. aeruginosa ATCC 27853 (P. aeruginosa ATCC 27853) [mg/L],MIC for S. aureus A798 (S. aureus A798) [mg/L],Structure (SMILES)
0.5,0.5,1,0.25,,,,,"CN1CC[C@H](Oc2cccc(-c3cccc(CNCC[C@H]4CN(c5ccc6c(n5)NC(=O)CO6)C(=O)O4)c3)n2)C1 [Example $121, 6-[(S)-5-(2-{3-[6-((S)-1-methyl-pyrrolidin-3-yloxy)-pyridin-2-yl]-benzylamino}-ethyl)-2-oxo-oxazolidin-3-yl]-4H-pyrido[3,2-b][1,4]oxazin-3-one]"
4,2,4,4,,,,,"CN1CC[C@@H](Oc2cnnc(-c3cccc(CNCC[C@H]4CN(c5ccc6c(n5)NC(=O)CO6)C(=O)O4)c3)c2)C1 [Example $166, 6-[(S)-5-(2-{3-[5-((R)-1-methyl-pyrrolidin-3-yloxy)-pyridazin-3-yl]-benzylamino}-ethyl)-2-oxo-oxazolidin-3-yl]-4H-pyrido[3,2-b][1,4]oxazin-3-one]"
,,,,2,1,0.5,2,"O=C1COc2ccc(N3C[C@H](CCNCc4cccc(-c5cccc(OC[C@@H]6CCN6)n5)c4)OC3=O)nc2N1.O=CO [Example $108, 6-[(S)-5-(2-{3-[6-((S)-1-azetidin-2-ylmethoxy)-pyridin-2-yl]-benzylamino}-ethyl)-2-oxo-oxazolidin-3-yl]-4H-pyrido[3,2-b][1,4]oxazin-3-oneformate]"
16,16,16,8,,,,,"O=C1COc2ccc(N3C[C@H](CCNCc4cccc(-c5cc(OC[C@@H]6CCN6)cnn5)c4)OC3=O)nc2N1 [Example $182, 6-[(S)-5-(2-{3-[5-((S)-1-azetidin-2-ylmethoxy)-pyridazin-3-yl]-benzylamino}-ethyl)-2-oxo-oxazolidin-3-yl]-4H-pyrido[3,2-b][1,4]oxazin-3-one]"
4,2,4,1,,,,,"CN1CC[C@H]1COc1cccc(-c2cccc(CNCC[C@H]3CN(c4ccc5c(n4)NC(=O)CO5)C(=O)O3)c2)c1 [Example $104, 6-[(S)-5-(2-{[3′-((S)-1-methyl-azetidin-2-ylmethoxy)-biphenyl-3-ylmethyl]-amino}-ethyl)-2-oxo-oxazolidin-3-yl]-4H-pyrido[3,2-b][1,4]oxazin-3-one]"
1,0.5,0.5,0.5,,,,,"CN1CC(Oc2cncc(-c3ccnc(CNCC[C@H]4CN(c5ccc6c(n5)NC(=O)CO6)C(=O)O4)c3)n2)C1 [Example $187, 6-{(S)-5-[2-({4-[6-(1-methyl-azetidin-3-yloxy)-pyrazin-2-yl]-pyridin-2-ylmethyl}-amino)-ethyl]-2-oxo-oxazolidin-3-yl}-4H-pyrido[3,2-b][1,4]oxazin-3-one]"
> 16,16,4,16,,,,,"O=C1COc2ccc(N3C[C@H](CCNCc4cccc(-c5cc(O[C@H]6CCNC6)cnn5)c4)OC3=O)nc2N1 [Example $181, 6-[(S)-2-oxo-5-(2-{3-[5-((S)-pyrrolidin-3-yloxy)-pyridazin-3-yl]-benzylamino}-ethyl)-oxazolidin-3-yl]-4H-pyrido[3,2-b][1,4]oxazin-3-one]"
2,0.5,0.5,1,,,,,"O=C1COc2ccc(N3C[C@H](CCNCc4cccc(-c5cccc(OC6CNC6)n5)c4)OC3=O)nc2N1 [Example $107, 6-[(S)-5-(2-{3-[6-(azetidin-3-yloxy)-pyridin-2-yl]-benzylamino}-ethyl)-2-oxo-oxazolidin-3-yl]-4H-pyrido[3,2-b][1,4]oxazin-3-one]"
4,2,4,4,,,,,"CN1CC[C@H](Oc2cnnc(-c3cccc(CNCC[C@H]4CN(c5ccc6c(n5)NC(=O)CO6)C(=O)O4)c3)c2)C1 [Example $153, 6-[(S)-5-(2-{3-[5-((S)-1-methyl-pyrrolidin-3-yloxy)-pyridazin-3-yl]-benzylamino}-ethyl)-2-oxo-oxazolidin-3-yl]-4H-pyrido[3,2-b][1,4]oxazin-3-one]"
1,1,1,0.25,,,,,"CN1CC[C@H]1COc1cccc(-c2cccc(CNCC[C@H]3CN(c4ccc5c(n4)NC(=O)CO5)C(=O)O3)c2)n1 [Example $123, 6-[(S)-5-(2-{3-[6-((S)-1-methyl-azetidin-2-ylmethoxy)-pyridin-2-yl]-benzylamino}-ethyl)-2-oxo-oxazolidin-3-yl]-4H-pyrido[3,2-b][1,4]oxazin-3-one]"
2,1,1,2,,,,,"O=C1COc2ccc(N3C[C@H](CCNCc4cccc(-c5cccc(O[C@@H]6CCNC6)n5)c4)OC3=O)nc2N1 [Example $118, 6-[(S)-2-oxo-5-(2-{3-[6-((R)-pyrrolidin-3-yloxy)-pyridin-2-yl]-benzylamino}-ethyl)-oxazolidin-3-yl]-4H-pyrido[3,2-b][1,4]oxazin-3-one]"
